Data taken from US9622953B2, “Cosmetic use of catalytic oxidation compounds chosen from porphyrins, phthalocyanines and/or porphyrazines as deodorant agent” (L'Oreal, priority 2011, dated 2017).

What was measured:
[1] = Test 1: Oxidation of 2,2,6,6-tetramethylpiperidine (TEMP); conditions: phosphate buffer pH 7.4, 50 mM TEMP, porphyrin 0.5 μM, oxygen saturated, daylight, 1 hour, EPR
Procedure: (§1) The oxidizing agent used during this test is dissolved oxygen.
A solution comprising a phosphate buffer (pH 7.4), 50 mM of the compound 2,2,6,6-tetramethylpiperidine (TEMP) and a porphyrin compound at 0.5 μM is prepared. The solution is saturated with oxygen. The solution is subjected to daylight.
After 1 hour, electron paramagnetic resonance spectrometry (EPR) is performed on the oxidized form of the compound 2,2,6,6-tetramethylpiperidine (TEMP), which corresponds to the compound (2,2,6,6-tetramethylpiperidin-1-yl)oxyl, known as TEMPO.
With a porphyrin compound according to the invention, the appearance of the compound TEMPO is observed after bringing into contact for 1 hour.

[2] = Blind sniff test of incubated flasks of human sweat by a panel of 8 testers; conditions: 1 mg of porphyrin compound in flask of sweat, same trial as Example 1
Procedure: 1) Human sweat is collected. During this collecting, the sweat is frozen.
2) The sweat is subsequently placed in a flask, so that there is an air phase above, once the flask is closed. 1 gram of sweat is placed in a 20 ml flask.
3) The porphyrin compound is placed in the flask in a proportion of 0.1 mg.
4) The flask is closed and incubated at 37° C. A test is then carried out which consists in sniffing the flask at t=4 hours and at t=16 hours.
The test is carried out blind and in comparison with a flask of sweat not comprising additive, a flask of sweat comprising a porphyrin compound not included in the present invention, such as cupric chlorophyllin, and a flask of sweat comprising 0.1 mg of triclosan.
The test is carried out by a panel composed of 8 testers who record their impression in terms of odorous intensity and of quality (ranging from neutral up to repulsive) and the mean of the impressions is produced.
1 mg of each of the porphyrin compounds is introduced into flasks comprising sweat collected in the same way as in Example 1.

[3] = Test 3: Activation of Hydrogen Peroxide; conditions: 1 mM porphyrin in 10-volume hydrogen peroxide, spontaneous pH, daylight
Procedure: 1 mM of a porphyrin compound is placed in 10-volume hydrogen peroxide, spontaneous pH.
The solution is subjected to daylight.
The content of hydrogen peroxide is then assayed. The porphyrin compound is regarded as within the invention if it reduces the amount of hydrogen peroxide by factor of at least 2 (5 volumes or less).

[4] = Test 2: Oxidation of DMPO; conditions: aqueous solution pH=7, 100 mM DMPO, porphyrin 100 μM, oxygen saturated, daylight, 1 hour, EPR
Procedure: as §1
An aqueous solution, pH=7, comprising 100 mM of DMPO and a porphyrin compound at 100 μM, is prepared. The solution is saturated with oxygen. The solution is subjected to daylight.
After 1 hour, electron paramagnetic resonance spectrometry (EPR) is performed on the oxidized form of the compound 5,5-dimethyl-1-pyrroline N-oxide, known as DMPO-OH.
More specifically, the EPR spectrum is characterized by a hyperfine coupling constant of a^N=a^H=14.6 G.

Compound | formation of the compound TEMPO (response to Test 1) [1] | effectiveness in the sweat flask odour trial [2] | reduction of the amount of hydrogen peroxide by factor of at least 2 (response to Test 3) [3] | formation of DMPO-OH (response to Test 2) [4]
O=S(=O)(O)c1ccc(-c2c3nc(c(-c4ccc(S(=O)(=O)O)cc4)c4ccc([nH]4)c(-c4ccc(S(=O)(=O)O)cc4)c4nc(c(-c5ccc(S(=O)(=O)O)cc5)c5ccc2[nH]5)C=C4)C=C3)cc1 [anionic porphyrin compound] | responds positively | effective | responds positively | 
copper chlorophyllin [reference compound] | does not result in the formation of the compound TEMPO |  |  | 
C[n+]1ccc(-c2c3nc(c(-c4cc[n+](C)cc4)c4ccc([nH]4)c(-c4cc[n+](C)cc4)c4nc(c(-c5cc[n+](C)cc5)c5ccc2[nH]5)C=C4)C=C3)cc1 [cationic porphyrin compound] | responds positively | effective |  | responds positively
